Experimental data from patent US20240285728A1, “TARGETED PROTEIN DELIVERY TO MAMMALIAN EMBRYOS AND THERAPEUTIC APPLICATIONS USING EXOSOMES” (University of Maryland, Baltimore, priority 2021, published 2024).

Assays:
[1] = test system: exosome production in the developing embryos; assay: Exosome profile, exosome numbers and CD63 expression in E8.5 embryos after GW4869 injections; format: in vivo, mouse
Procedure: Mouse models of diabetic embryopathy. […] NTDs were examined at E10.5.
Exosome extraction and labelling. Cells and debris were removed from cell culture media via centrifugation at 2000×g for 30 minutes at 4° C. Supernatants containing the cell-free culture media were transferred to a new tube without disturbing the pellet. Total Exosome Isolation (#4478359, Invitrogen, Carlsbad, CA) at 0.5 volume of the collected supernatants was added to each tube. The cell culture media/reagent mixture was mixed well via vortex and pipetting up and down until it became a homogenous solution, and then was incubated at 4° C. overnight. After incubation, the samples were centrifuged at 10,000×g for 1 hour at 4° C. and the supernatants were discarded. Exosomes were contained in the pellet at the bottom of the tube (not visible in most cases). The pellet was re-suspended in 1 ml of 1×PBS, and NanoSight (#NS300, Malvern Panalytical) was used to measure the exosomes. The presence of exosomes was confirmed by Western blot using the exosomal marker CD63 (Santa Cruz Biotechnology, Dallas, TX). Exosomes were suspended in 1 ml Diluent C (Sigma, St Louis, MO) and labeled by incubating with PKH67 fluorescent dye (Sigma, St Louis, MO) for 5 min in the dark at room temperature. […]

[2] = test system: embryos of nondiabetic dams; conditions: mouse, in vivo
Procedure: Mouse models of diabetic embryopathy. […] Briefly, ten-week old female mice were intravenously injected daily with 75 mg/kg STZ over two days to induce diabetes. Diabetes was defined as 12 hours fasting blood glucose level of ≥250 mg/dL. Male and female mice were paired at 3:00 PM, and day 0.5 (E0.5) of pregnancy was established by the presence of the vaginal plug at 8:00 AM the next morning. Female mice injected with vehicle served as the nondiabetic controls. On E7.5, E8.5, E9.5 or E10.5 mice were euthanized and conceptuses were dissected out of the uteri for biochemical and molecular analysis. The exosome inhibitor GW4869 (Sigma, St, Louis, MO) was injected daily to nondiabetic pregnant dams from E7.0 to E8.0. NTDs were examined at E10.5.
Statistical analyses. Data were presented as means±standard errors (SE). In animal studies, experiments were repeated at least three times, and embryonic samples from each replicate were from different dams. Statistical differences were determined by one-way analysis of variance (ANOVA) using the SigmaPlot 12.5 (SigmaStat, San Jose, CA). In one-way ANOVA analysis, Tukey test was used to estimate the significance of the results (P<0.05). The Chi square test and Fisher Exact test were used to estimate the significance of NTD incidence.

[3] = mouse, in vivo
Procedure: Briefly, ten-week old female mice were intravenously injected daily with 75 mg/kg STZ over two days to induce diabetes. Diabetes was defined as 12 hours fasting blood glucose level of ≥250 mg/dL. Male and female mice were paired at 3:00 PM, and day 0.5 (E0.5) of pregnancy was established by the presence of the vaginal plug at 8:00 AM the next morning. Female mice injected with vehicle served as the nondiabetic controls. On E7.5, E8.5, E9.5 or E10.5 mice were euthanized and conceptuses were dissected out of the uteri for biochemical and molecular analysis. The exosome inhibitor GW4869 (Sigma, St, Louis, MO) was injected daily to nondiabetic pregnant dams from E7.0 to E8.0. NTDs were examined at E10.5.

neuroepithelial cells = conditions: mouse, in vivo
Procedure: (§3) Mouse models of diabetic embryopathy. The mouse model of diabetic embryopathy was described previously [4,22,36,45,46]. Briefly, ten-week old female mice were intravenously injected daily with 75 mg/kg STZ over two days to induce diabetes. Diabetes was defined as 12 hours fasting blood glucose level of ≥250 mg/dL. Male and female mice were paired at 3:00 PM, and day 0.5 (E0.5) of pregnancy was established by the presence of the vaginal plug at 8:00 AM the next morning. Female mice injected with vehicle served as the nondiabetic controls. On E7.5, E8.5, E9.5 or E10.5 mice were euthanized and conceptuses were dissected out of the uteri for biochemical and molecular analysis.
(§4) Immunoblotting. Immunoblotting was performed as described by Yang at el [4]. Lysis buffer (Cell Signaling Technology, Danvers, MA) containing a protease inhibitor cocktail (Sigma, St Louis, MO) was used to extract protein. Equal amounts of protein and Precision Plus Protein Standards (Bio-Rad, Hercules, CA) were resolved by SDS-PAGE and transferred onto Immunobilon-P membranes (Millipore, Billerica, MA). […] Signals were detected using the SuperSignal West Femto Maximum Sensitivity Substrate kit (Thermo Fisher Scientific, Waltham, MA). […]

[4] = test system: (p)-PERK, (p)-IRE1α, (p)-eIF2α and CHOP; conditions: mouse, in vivo
Procedure: as §3, §4

[5] = test system: Fgf2 promoter in yolk sac endoderm PYS2 cell line; assay: Fgf2 promoter luciferase reporter activity under high glucose; format: cell-based; conditions: suppressed by high glucose (25 mM glucose), PYS2 cells
Procedure: (§1) Cell culture and transfection. The C17.2 mouse neural stem cell line from the European Collection of Cell Culture (Salisbury, UK) and the yolk sac endoderm PYS2 cell line (ATCC® CRL2745™) were maintained in DMEM (5 mM glucose) supplemented with 10% FBS, 100 U/ml penicillin, and […] streptomycin at 37° C. in a humidified atmosphere of 5% CO2. Mouse recombinant FGF2 (#3139-FB; R&D Systems, Minneapolis, MN) was used at a final concentration of 10 ng/ml. Lipofectamine 2000 (Invitrogen, Carlsbad, CA) was used according to the manufacturer's protocol for transfection of siFGF2 and control siRNA (Invitrogen, Carlsbad, CA) into the cells. After seeding for 12 h, cells were transfected with recombinant FGF2 and cultured in 1% FBS for 8 h, after which cells were cultured in 10% FBS and collected after 48 h for analysis.

yolk sac cell line = assay: Exosome number and Survivin protein in exosomes of a yolk sac cell line; format: cell-based
Procedure: as §1
(§2) Exosome extraction and labelling. Cells and debris were removed from cell culture media via centrifugation at 2000×g for 30 minutes at 4° C. Supernatants containing the cell-free culture media were transferred to a new tube without disturbing the pellet. Total Exosome Isolation (#4478359, Invitrogen, Carlsbad, CA) at 0.5 volume of the collected supernatants was added to each tube. The cell culture media/reagent mixture was mixed well via vortex and pipetting up and down until it became a homogenous solution, and then was incubated at 4° C. overnight. […]

Survivin promoter = assay: Luciferase reporter activity driven by the Survivin promoter; format: cell-based
Procedure: as §1

[6] = test system: isolated E8 Flk-1^+ progenitors; assay: Survivin protein in exosomes of isolated E8 Flk-1+ progenitors; format: cell-based, mouse; conditions: high glucose
Procedure: Isolation of Flk-1+ endothelial progenitor cells. Flk-1^+ progenitor cells were isolated from the E8 yolk sac. Yolk sacs were minced in phosphate-buffered saline PBS (Thermo Fisher Scientific, Waltham, MA), digested with 1 mg/ml of collagenase type I (Sigma, St Louis, MO) and incubated on an orbital shaker at 37° C. for 30-45 min. Following the collagenase treatment, cells were washed twice with growth medium (EBM-2, fetal bovine serum (10%), hFGF-basic (0.5 ml), hydrocortisone (0.2 ml), VEGF (0.5 ml), IGF-1 (0.5 ml), ascorbic acid (0.5 ml), hEGF (0.5 ml), GA-100 (0.5 ml)) before being plated. Cells were trypsinized (Lonza, Walkersville, MD) and sorted for Flk-1 with MACS microbeads (Miltenyi Biotec, Bergisch Gladbach, Germany) as per the kit instructions. The Flk-1^+ progenitor cells were collected and cultured in growth medium as mentioned above.
as §2, with “tube.” for “tube. The cell culture media/reagent mixture was mixed well via vortex and pipetting up and down until it became a homogenous solution, and then was incubated at 4° C. overnight.”

Survivin = Survivin mRNA and protein expression in normal and high glucose culture; format: cell-based; conditions: normal glucose 5 mM / high glucose 25 mM culture
Procedure: as §1
Real-time PCR (RT-PCR). mRNA was isolated from embryos using the RNeasy Mini kit (Qiagen, Hilden, Germany), and then reversely transcribed using the high-capacity cDNA archive kit (Applied Biosystem, Grand Island, NY). Real time-PCR for Fgf2, Fgfr, Bmp4, Vegfr2, mVegfr1, Calnexin, GRP94, PDIA, BiP, IRE1α, CHOP, Survivin and β-actin were performed using the Maxima SYBR Green/ROX qPCR Master Mix assay (Thermo Fisher Scientific, Waltham, MA) in the Step One Plus system (Applied Biosystem, Grand Island, NY).

In the case of O=C(/C=C/c1ccc(/C=C/C(=O)Nc2ccc(C3=NCCN3)cc2)cc1)Nc1ccc(C2=NCCN2)cc1 [GW4869], the “exosome production in the developing embryos” value [1] is reported as “inhibited”, the “NTD Embryos” value [2] is reported as 7 and the NTD induction [2] is reported as “mimicked the teratogenic effect of maternal diabetes”. For the same molecule, the NTD rate [2] was 7.29%, the “detection in the embryo” value [3] was “reached the embryo” and the neuroepithelial cell apoptosis (neuroepithelial cells) was “triggered”. The “ER stress in neurulation stage embryos” value [4] was “triggered”.

For O=C(O)C(Cc1c[nH]c2ccccc12)N1C(=O)c2ccccc2C1=O (stereo not drawn) [RG108], the “Fgf2 promoter-driven luciferase activity” value [5] was “restored”.

With “FGF2: recombinant fibroblast growth factor 2, used at 10 ng/ml” the “Survivin in exosomal cargo” value (yolk sac cell line) was “rescued”, the “luciferase reporter activity driven by the Survivin promoter” value (Survivin promoter) was “stimulated” and the “Survivin expression in exosomes” value [6] was “abolished this suppression”. The “Survivin mRNA and protein expression” value (Survivin) was “normalized”.
